Laboratory results from the supplement of paper PMC10307832.

Legend:
Assay in all cases: relative viability (nuclei count vs DMSO), 5 days (fraction); higher = more cells survive
[1] = compound: CC[C@@H]1C(=O)N(C)c2cnc(Nc3ccc(C(=O)NC4CCN(C)CC4)cc3OC)nc2N1C1CCCC1 [BI-2536] + C[C@]1(O)C[C@@H](c2nc(-c3ccc4ccc(-c5ccccc5)nc4c3)c3c(N)nccn32)C1 [Linsitinib] (partner 1 µM)
How it was run: (§1)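 Dosing by pin tool came one day after lung cancer cell lines were seeded in 1536-well plates, using either one drug or a fixed anchor-drug dose plus five library-drug doses (not always all listed) in √10 steps. After 5 days, nuclei were counted on 4× images. Relative viability is treated-well nuclei count divided by vehicle-well nuclei count, and values are medians of duplicate plates.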

[2] = compound: CC1CC(=O)N(C2=CN=C(N=C2N1C3CCCC3)NC4=C(C=C(C=C4)C(=O)NC5CCN(CC5)C)OC)C [NPK76-II-72-1] + N=C(N)NC(=N)NCCc1ccccc1 [Phenformin] (partner 250 µM)
How it was run: as §1

[3] = compound: CC1CC(=O)N(C2=CN=C(N=C2N1C3CCCC3)NC4=C(C=C(C=C4)C(=O)NC5CCN(CC5)C)OC)C [NPK76-II-72-1] + CCNC(=O)c1noc(-c2cc(C(C)C)c(O)cc2O)c1-c1ccc(CN2CCOCC2)cc1 [Luminespib] (partner 0.01 µM)
How it was run: as §1

[4] = compound: CC1CC(=O)N(C2=CN=C(N=C2N1C3CCCC3)NC4=C(C=C(C=C4)C(=O)NC5CCN(CC5)C)OC)C [NPK76-II-72-1] + Nc1ncn([C@H]2C[C@H](O)[C@@H](CO)O2)c(=O)n1 [Decitabine] (partner 2 µM)
How it was run: as §1

| Cell Line | relative viability ([1]; first compound 0.01 µM) | relative viability ([1]; first compound 0.03162 µM) | relative viability ([1]; first compound 0.1 µM) | relative viability ([1]; first compound 0.3162 µM) | relative viability ([1]; first compound 1 µM) | relative viability ([2]; first compound 0.01 µM) | relative viability ([2]; first compound 0.03162 µM) | relative viability ([2]; first compound 0.1 µM) | relative viability ([2]; first compound 0.3162 µM) | relative viability ([2]; first compound 1 µM) | relative viability ([3]; first compound 0.01 µM) | relative viability ([3]; first compound 0.03162 µM) | relative viability ([3]; first compound 0.1 µM) | relative viability ([3]; first compound 0.3162 µM) | relative viability ([3]; first compound 1 µM) | relative viability ([4]; first compound 0.01 µM) | relative viability ([4]; first compound 0.03162 µM) | relative viability ([4]; first compound 0.1 µM) | relative viability ([4]; first compound 0.3162 µM) | relative viability ([4]; first compound 1 µM) |
| --- | --- | --- | --- | --- | --- | --- | --- | --- | --- | --- | --- | --- | --- | --- | --- | --- | --- | --- | --- | --- |
| NCI-H2126 | 0.751 | 0.759 | 0.721 | 0.46 | 0.268 | 0.52 | 0.532 | 0.508 | 0.525 | 0.557 | 0.88 | 0.907 | 0.933 | 0.814 | 0.901 | 0.57 | 0.554 | 0.569 | 0.516 | 0.538 |
| NCI-H3122 | 1.03 | 1.06 | 1.01 | 0.184 | 0.224 | 0.374 | 0.378 | 0.389 | 0.378 | 0.38 | 0.095 | 0.101 | 0.113 | 0.0814 | 0.079 | 0.361 | 0.431 | 0.471 | 0.424 | 0.438 |
| NCI-H1975 | 0.948 | 0.861 | 1.03 | 0.192 | 0.147 | 0.398 | 0.424 | 0.395 | 0.43 | 0.437 | 0.23 | 0.196 | 0.183 | 0.243 | 0.294 | 0.351 | 0.375 | 0.398 | 0.364 | 0.391 |
| NCI-H1944 | 1.35 | 1.27 | 1.17 | 1.02 | 0.283 | 0.197 | 0.197 | 0.198 | 0.187 | 0.211 | 0.743 | 0.781 | 0.722 | 0.723 | 0.807 | 0.431 | 0.463 | 0.408 | 0.408 | 0.478 |
| LU99A | 0.593 | 0.534 | 0.472 | 0.172 | 0.194 | 0.829 | 0.814 | 0.855 | 0.838 | 0.95 | 0.261 | 0.212 | 0.304 | 0.238 | 0.278 | 0.897 | 0.833 | 0.75 | 0.928 | 0.916 |
| SW 1573 | 0.696 | 0.683 | 0.82 | 0.161 | 0.132 | 0.33 | 0.438 | 0.33 | 0.319 | 0.452 | 0.333 | 0.218 | 0.278 | 0.383 | 0.21 | 0.508 | 0.579 | 0.51 | 0.649 | 0.505 |
| NCI-H2347 | 0.947 | 0.929 | 0.967 | 0.617 | 0.549 | 0.413 | 0.432 | 0.514 | 0.521 | 0.395 | 0.529 | 0.593 | 0.459 | 0.526 | 0.437 | 0.607 | 0.578 | 0.614 | 0.562 | 0.635 |
| HCC-78 | 0.613 | 0.481 | 0.511 | 0.52 | 0.207 | 0.695 | 0.684 | 0.684 | 0.692 | 0.665 |  |  |  |  |  | 0.711 | 0.696 | 0.549 | 0.699 | 0.653 |
| NCI-H1299 | 1 | 0.971 | 0.974 | 0.245 | 0.363 |  |  |  |  |  |  |  |  |  |  |  |  |  |  |  |
| NCI-H1650 |  |  |  |  |  | 0.361 | 0.374 | 0.468 | 0.349 | 0.396 | 0.185 | 0.198 | 0.207 | 0.194 | 0.194 | 0.377 | 0.43 | 0.435 | 0.423 | 0.347 |
| ChaGo-K-1 |  |  |  |  |  | 0.472 | 0.575 | 0.544 | 0.476 | 0.478 | 0.624 | 0.616 | 0.695 | 0.523 | 0.67 | 0.487 | 0.52 | 0.475 | 0.512 | 0.501 |
| NCI-H2228 | 0.692 | 1.06 | 0.63 | 0.116 | 0.155 | 0.301 | 0.345 | 0.328 | 0.324 | 0.296 | 0.177 | 0.143 | 0.174 | 0.133 | 0.166 |  |  |  |  |  |
| NCI-H1648 |  |  |  |  |  |  |  |  |  |  |  |  |  |  |  | 0.53 | 0.551 | 0.548 | 0.476 | 0.519 |
| NCI-H1563 | 1.17 | 1.19 | 1.22 | 0.73 | 0.766 | 0.686 | 0.606 | 0.637 | 0.656 | 0.697 | 0.5 | 0.627 | 0.578 | 0.519 | 0.504 |  |  |  |  |  |
| A549 | 0.582 | 0.536 | 0.63 | 0.294 | 0.0483 |  | 0.136 | 0.222 | 0.155 | 0.192 |  |  |  |  |  | 0.429 | 0.332 | 0.327 | 0.233 | 0.312 |
| NCI-H522 |  |  |  |  |  | 0.557 | 0.732 | 0.639 | 0.563 | 0.699 | 1.05 | 1.1 | 1.42 | 1.14 | 1.27 | 0.74 | 0.598 | 0.686 |  | 0.633 |
| NCI-H2170 |  |  |  |  |  | 0.412 | 0.432 | 0.402 | 0.404 | 0.461 | 0.63 | 0.403 | 0.586 | 0.548 | 0.61 | 0.442 | 0.447 | 0.455 | 0.42 | 0.511 |
| NCI-H1623 |  |  |  |  |  | 0.562 | 0.563 | 0.622 | 0.324 | 0.622 | 0.448 | 0.382 | 0.513 | 0.421 | 0.574 |  |  |  |  |  |
| SW 900 |  |  |  |  |  | 0.559 | 0.73 | 0.657 | 0.664 | 0.699 | 0.183 | 0.19 | 0.171 | 0.169 | 0.169 | 0.425 | 0.407 | 0.429 | 0.504 | 0.467 |
| IA-LM | 0.641 | 0.55 | 0.774 | 0.104 | 0.164 |  |  |  |  |  |  |  |  |  |  |  |  |  |  |  |
| CAL-12T | 0.913 | 0.808 | 0.852 | 0.165 | 0.286 | 0.563 | 0.56 | 0.562 | 0.554 | 0.619 | 0.4 | 0.65 | 0.93 | 0.143 | 0.408 |  |  |  |  |  |
| EBC-1 | 0.966 | 0.797 | 0.863 | 0.172 | 0.154 |  |  |  |  |  |  |  |  |  |  |  |  |  |  |  |
